In PubChem BioAssay (NCI):
Where “and” joins values, the source holds several entries; their conditions need not be identical. Identical values can stand only once.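 Results reflect a 48-hour exposure of cells in 96-well plates to compound at five concentrations. The concentration for 50% growth inhibition is given as GI50. The concentration for full growth arrest is given as TGI.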

Assays:
Test in all cases: NCI tumour cell line growth inhibition, 48 h
[1] = test system: MDA-MB-231 breast
[2] = test system: NCI-H23 lung
[3] = test system: HOP-92 NSCLC
[4] = test system: SW-620 colon
[5] = test system: NCI-H522 lung
[6] = test system: M14 melanoma
[7] = test system: SF-268 CNS
[8] = test system: BT-549 breast
[9] = test system: SN12C renal
[10] = test system: MCF7 breast

`NC(N)=N/N=C/c1cccc(Cl)c1Cl` showed a GI50 [1] of 3.63 µM, a TGI [1] of 14.7 µM and a GI50 [2] of 11.2 µM. For the same compound, the TGI [2] was 26.4 µM, the GI50 [3] was 1.19 µM and the TGI [3] was 5.88 µM. For the same compound, the GI50 [4] was 2.25 µM, the TGI [4] was 5.89 µM and the GI50 [5] was 3.16 µM. The TGI [5] was 13.6 µM, the GI50 [6] was 1.98 µM and the TGI [6] was 4.04 µM. It also gave a GI50 [7] of 11.8 µM, a TGI [7] of 25.5 µM and a GI50 [8] of 13.2 µM. It also gave a TGI [8] of 28.7 µM, a GI50 [9] of 3.92 µM and a TGI [9] of 16.3 µM. For the same compound, the GI50 [10] was 2.09 µM and the TGI [10] was 5.03 µM.

With `CC(C)c1cc(CNc2nc(Nc3cc(C4CC4)[nH]n3)cc(N3CCN(C)CC3)n2)on1` the GI50 [1] was 1.29 µM and 0.151 µM, the TGI [1] was > 10 µM and 5.42 µM and the GI50 [2] was 1.54 µM and 0.173 µM. For the same compound, the TGI [2] was > 10 µM and 3.37 µM, the GI50 [3] was 0.16 µM and 0.0273 µM and the TGI [3] was 0.821 µM and 0.182 µM. The TGI [4] was > 10 µM and 10.8 µM, the GI50 [5] was 0.422 µM and 0.992 µM and the TGI [5] was 4.3 µM and 3.83 µM. The TGI [6] was > 10 µM and 2.51 µM, the GI50 [7] was 1.7 µM and 0.277 µM and the TGI [7] was > 10 µM and 2.25 µM. For the same compound, the TGI [8] was > 10 µM and 1.4 µM, the TGI [9] was > 10 µM and 15.1 µM and the TGI [10] was > 10 µM and 13.1 µM.

With `CC1CCC2C(C)C3C(CC4C5CC=C6CC(OC7OC(CO)C(O)C(OC8OC(CO)C(O)C(O)C8O)C7OC7OC(C)C(O)C(O)C7O)CCC6(C)C5CCC43C)N2C1` (stereo unspecified) the GI50 [1] was > 2.5 µg/mL, the TGI [1] was 27.8 µM and > 2.5 µg/mL and the GI50 [2] was > 2.5 µg/mL. The TGI [2] was 29.8 µM and > 2.5 µg/mL, the GI50 [3] was > 2.5 µg/mL and the TGI [3] was 33.6 µM and > 2.5 µg/mL. For the same compound, the GI50 [4] was > 2.5 µg/mL, the TGI [4] was 31.6 µM and > 2.5 µg/mL and the GI50 [5] was > 2.5 µg/mL. For the same compound, the TGI [5] was 35.2 µM and > 2.5 µg/mL, the GI50 [6] was > 2.5 µg/mL and the TGI [6] was 9.84 µM and > 2.5 µg/mL. For the same compound, the GI50 [7] was > 2.5 µg/mL, the TGI [7] was 34.1 µM and > 2.5 µg/mL and the GI50 [8] was > 2.5 µg/mL. The TGI [8] was 31.9 µM and > 2.5 µg/mL, the GI50 [9] was > 2.5 µg/mL and the TGI [9] was 24.3 µM and > 2.5 µg/mL. For the same compound, the GI50 [10] was > 2.5 µg/mL and the TGI [10] was 29.1 µM and > 2.5 µg/mL.

In the case of `CCOC(=O)C1=C(NC(C)(C)C)OCC1=O`, the TGI [2] is reported as > 100 µM, the TGI [3] is reported as > 100 µM and the TGI [4] is reported as > 100 µM. The TGI [5] was > 100 µM, the TGI [6] was > 100 µM and the TGI [7] was > 100 µM. For the same compound, the TGI [9] was > 100 µM.

In the case of `Fc1ccc(F)c(C2SCc3nc4ccccc4n32)c1` (stereo unspecified), the TGI [2] is reported as > 100 µM, the TGI [3] is reported as > 100 µM and the TGI [4] is reported as > 100 µM. The TGI [5] was > 100 µM, the TGI [6] was > 100 µM and the TGI [7] was > 100 µM. For the same compound, the TGI [9] was > 100 µM.

In the case of `C[C@H]1COC2(c3ccccc3)CCC(=O)N12` (stereo partly specified), the TGI [2] is reported as > 100 µM, the TGI [3] is reported as > 100 µM and the TGI [4] is reported as > 100 µM. For the same compound, the TGI [7] was > 100 µM and the TGI [9] was > 100 µM.

In the case of `CC1CCCN(CC(O)CN2CCCc3ccccc32)C1` (stereo unspecified), the TGI [1] is reported as > 100 µM, the TGI [2] is reported as > 100 µM and the TGI [4] is reported as > 100 µM. For the same compound, the TGI [5] was > 100 µM, the TGI [6] was > 100 µM and the TGI [7] was > 100 µM. The TGI [8] was > 100 µM, the TGI [9] was > 100 µM and the TGI [10] was > 100 µM.

With `CC1=Nc2c([nH]c(=S)[nH]c2=O)NC(c2ccc(Cl)c(Cl)c2)C1` (stereo unspecified) the TGI [2] was 40.2 µM, the TGI [3] was > 100 µM and the TGI [4] was > 57.7 µM. For the same compound, the TGI [5] was > 100 µM, the TGI [6] was 31.3 µM and the TGI [7] was > 93.1 µM. The TGI [9] was 43.9 µM.

With `COc1cc(OC)c(OC)cc1/C=C1\C=Cc2ccccc21` the TGI [1] was 50.9 µM, the TGI [2] was > 100 µM and the TGI [4] was 35.4 µM. For the same compound, the TGI [5] was 51.2 µM, the TGI [7] was > 100 µM and the TGI [9] was 36.7 µM. For the same compound, the TGI [10] was > 100 µM.

In the case of `COc1ccc(CCNCc2cccc(OC)c2OC)cc1OC`, the TGI [2] is reported as > 100 µM, the TGI [3] is reported as > 100 µM and the TGI [4] is reported as > 100 µM. The TGI [5] was > 100 µM, the TGI [6] was > 100 µM and the TGI [7] was > 100 µM. The TGI [9] was > 100 µM.

`CN(/N=C/c1ccnc2ccccc12)c1ccc([N+](=O)[O-])cc1[N+](=O)[O-]` was tested, and the TGI [2] was > 100 µM, the TGI [3] was > 100 µM and the TGI [4] was > 100 µM. The TGI [5] was > 100 µM, the TGI [6] was > 100 µM and the TGI [7] was > 100 µM. The TGI [9] was > 100 µM.

Compound `CCOC(=O)CNC(=O)CCCn1c(=O)c2c3ccccc3n(C)c2n2nnc(-c3ccccc3)c12` has a GI50 [1] of 14.7 µM, a TGI [1] of 31 µM and a GI50 [2] of 11.8 µM. The TGI [2] was > 50 µM, the GI50 [3] was 3.6 µM and the TGI [3] was 14.8 µM. For the same compound, the GI50 [4] was > 50 µM, the TGI [4] was > 50 µM and the GI50 [5] was 6.49 µM. For the same compound, the TGI [5] was 19.9 µM, the GI50 [6] was 18.7 µM and the TGI [6] was > 50 µM. For the same compound, the GI50 [7] was 14.2 µM, the TGI [7] was > 50 µM and the GI50 [9] was > 50 µM. The TGI [9] was > 50 µM, the GI50 [10] was 31.3 µM and the TGI [10] was > 50 µM.

For `O=C1OC(c2ccccc2)=N/C1=C\c1c(O)cc(O)cc1O`, the TGI [2] was > 100 µM, the TGI [3] was > 100 µM and the TGI [4] was > 100 µM. The TGI [5] was > 100 µM, the TGI [6] was > 100 µM and the TGI [7] was > 100 µM. The TGI [9] was > 100 µM.

`CCN(CC)CCCCCOc1cc(O)c2c(=O)cc(-c3ccccc3)oc2c1` gave a GI50 [1] of 1.49 µM, a TGI [1] of 4.34 µM and a GI50 [4] of 3.03 µM. For the same compound, the TGI [4] was 10.3 µM, the GI50 [5] was 2.23 µM and the TGI [5] was 5.13 µM. The GI50 [6] was 1.71 µM, the TGI [6] was 3.1 µM and the GI50 [7] was 7.82 µM. For the same compound, the TGI [7] was 25.5 µM, the GI50 [8] was 12.5 µM and the TGI [8] was 26.5 µM. For the same compound, the GI50 [9] was 4.78 µM, the TGI [9] was 17 µM and the GI50 [10] was 1.66 µM. For the same compound, the TGI [10] was 3.83 µM.

For `COc1ccc(/C(Cl)=C(\C=O)c2ccc(Br)cc2)cc1OC`, the TGI [2] was > 100 µM, the TGI [3] was 72.6 µM and the TGI [4] was > 100 µM. For the same compound, the TGI [5] was > 100 µM, the TGI [6] was > 100 µM and the TGI [7] was > 100 µM. The TGI [9] was > 100 µM.

For `CC(C)CC(CNC(Cc1ccc(Cl)cc1)C(N)=O)NC(=O)C(Cc1cnc[nH]1)NC(=O)CNC(=O)C(NC(=O)C(C)NC(=O)C(Cc1c[nH]c2ccccc12)NC(=O)C(CCC(=O)O)NC(=O)C(N)Cc1ccccc1)C(C)C` (stereo unspecified), the TGI [2] was > 133 µM, the TGI [3] was < 0.0133 µM and the TGI [4] was > 133 µM. The TGI [9] was > 133 µM.

With `O=C(/C=C/c1c(O)ccc2ccccc12)c1cccc2ccccc12` the TGI [2] was > 100 µM, the TGI [3] was > 100 µM and the TGI [4] was > 51.6 µM. For the same compound, the TGI [5] was > 100 µM, the TGI [6] was > 100 µM and the TGI [7] was > 100 µM. For the same compound, the TGI [9] was > 100 µM.

In the case of `COc1ccccc1CNC(=O)C1c2ccccc2C(=O)N(CC(C)C)C1c1cccs1` (stereo unspecified), the GI50 [1] is reported as 26.8 µM, the TGI [1] is reported as > 100 µM and the GI50 [2] is reported as 25.8 µM. The TGI [2] was > 100 µM, the GI50 [3] was 8.15 µM and the TGI [3] was 44 µM. The GI50 [4] was 26.4 µM, the TGI [4] was > 100 µM and the GI50 [6] was 19.1 µM. The TGI [6] was 52.7 µM, the GI50 [7] was 30.6 µM and the TGI [7] was > 100 µM. It also gave a GI50 [8] of 23 µM, a TGI [8] of 64.4 µM and a GI50 [9] of 35 µM. The TGI [9] was > 100 µM, the GI50 [10] was 27.2 µM and the TGI [10] was > 100 µM.

`Cc1cccc2c1Oc1cc(Cl)ccc1C2NC(=O)CN(C)C` (stereo unspecified) was tested, and the TGI [2] was > 100 µM, the TGI [4] was > 100 µM and the TGI [6] was 51.8 µM. The TGI [7] was > 100 µM and the TGI [9] was > 100 µM.

`CCc1ccccc1-n1c2nc(=O)n(C)c(=O)c-2nc2ccccc21` was tested, and the TGI [2] was 18.2 µM, the TGI [4] was 27.3 µM and the TGI [5] was 27.3 µM. It also gave a TGI [6] of 20.8 µM, a TGI [7] of 24 µM and a TGI [9] of 26.6 µM.

In the case of `O=C(CCCNC(=O)OCc1ccccc1)OCc1ccc2c(c1)C(=O)c1ccccc1C2=O`, the TGI [2] is reported as > 100 µM, the TGI [3] is reported as > 91.3 µM and the TGI [4] is reported as > 100 µM. For the same compound, the TGI [5] was > 100 µM, the TGI [6] was > 100 µM and the TGI [7] was > 100 µM. The TGI [9] was > 26 µM.
